Assay results taken from patent US20100234427A1 (priority 2006, published 2010).
Where a name gives a salt, the structure may show the parent alone.

Tests used:
Assay in all cases: biochemical
[1] = molecular target: T1, dopamine (DA) reuptake in synaptosomes (Rattus norvegicus, UniProt P23977)
T1 construct: in synaptosomes as described in WO 97/16451; from tissue

[2] = molecular target: T2, noradrenaline (NA) reuptake in synaptosomes (Rattus norvegicus, UniProt Q63380)
T2 construct: in synaptosomes as described in WO 97/16451; from tissue

[3] = molecular target: T3, serotonine (5-HT) reuptake in synaptosomes (Rattus norvegicus, UniProt P31652)
T3 construct: in synaptosomes as described in WO 97/16451; from tissue
T3 sequence (P31652 whole entry): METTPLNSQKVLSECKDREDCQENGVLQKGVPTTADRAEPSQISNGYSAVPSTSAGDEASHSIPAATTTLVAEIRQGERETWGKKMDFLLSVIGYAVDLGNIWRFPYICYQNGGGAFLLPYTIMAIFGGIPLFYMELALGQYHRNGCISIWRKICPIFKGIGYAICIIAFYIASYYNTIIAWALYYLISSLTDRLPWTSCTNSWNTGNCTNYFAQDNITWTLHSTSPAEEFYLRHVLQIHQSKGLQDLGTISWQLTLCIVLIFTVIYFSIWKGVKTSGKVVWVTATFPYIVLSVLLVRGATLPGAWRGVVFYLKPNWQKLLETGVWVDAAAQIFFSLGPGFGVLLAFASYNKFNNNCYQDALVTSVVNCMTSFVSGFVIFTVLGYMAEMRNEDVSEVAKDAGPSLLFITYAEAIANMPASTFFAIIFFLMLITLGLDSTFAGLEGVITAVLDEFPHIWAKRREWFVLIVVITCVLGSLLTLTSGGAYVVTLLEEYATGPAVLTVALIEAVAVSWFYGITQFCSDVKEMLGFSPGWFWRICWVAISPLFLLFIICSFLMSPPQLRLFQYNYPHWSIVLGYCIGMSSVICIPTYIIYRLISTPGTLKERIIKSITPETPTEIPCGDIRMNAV

T2 sequence (Q63380 1-617): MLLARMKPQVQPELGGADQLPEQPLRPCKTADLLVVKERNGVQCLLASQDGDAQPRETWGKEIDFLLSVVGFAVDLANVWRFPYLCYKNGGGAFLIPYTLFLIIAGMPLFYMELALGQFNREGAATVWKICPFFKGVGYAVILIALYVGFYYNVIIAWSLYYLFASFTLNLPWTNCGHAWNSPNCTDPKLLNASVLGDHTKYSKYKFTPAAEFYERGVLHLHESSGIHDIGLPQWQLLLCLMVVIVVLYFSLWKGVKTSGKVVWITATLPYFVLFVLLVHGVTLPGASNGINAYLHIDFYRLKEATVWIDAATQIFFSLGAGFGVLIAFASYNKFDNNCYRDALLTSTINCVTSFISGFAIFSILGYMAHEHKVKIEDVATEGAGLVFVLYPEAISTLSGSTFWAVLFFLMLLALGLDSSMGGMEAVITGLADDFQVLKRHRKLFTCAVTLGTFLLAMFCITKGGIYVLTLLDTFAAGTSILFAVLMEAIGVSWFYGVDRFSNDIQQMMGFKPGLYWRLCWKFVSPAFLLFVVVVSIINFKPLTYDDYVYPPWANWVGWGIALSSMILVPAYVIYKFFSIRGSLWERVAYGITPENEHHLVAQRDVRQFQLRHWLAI
T1 sequence (P23977 whole entry): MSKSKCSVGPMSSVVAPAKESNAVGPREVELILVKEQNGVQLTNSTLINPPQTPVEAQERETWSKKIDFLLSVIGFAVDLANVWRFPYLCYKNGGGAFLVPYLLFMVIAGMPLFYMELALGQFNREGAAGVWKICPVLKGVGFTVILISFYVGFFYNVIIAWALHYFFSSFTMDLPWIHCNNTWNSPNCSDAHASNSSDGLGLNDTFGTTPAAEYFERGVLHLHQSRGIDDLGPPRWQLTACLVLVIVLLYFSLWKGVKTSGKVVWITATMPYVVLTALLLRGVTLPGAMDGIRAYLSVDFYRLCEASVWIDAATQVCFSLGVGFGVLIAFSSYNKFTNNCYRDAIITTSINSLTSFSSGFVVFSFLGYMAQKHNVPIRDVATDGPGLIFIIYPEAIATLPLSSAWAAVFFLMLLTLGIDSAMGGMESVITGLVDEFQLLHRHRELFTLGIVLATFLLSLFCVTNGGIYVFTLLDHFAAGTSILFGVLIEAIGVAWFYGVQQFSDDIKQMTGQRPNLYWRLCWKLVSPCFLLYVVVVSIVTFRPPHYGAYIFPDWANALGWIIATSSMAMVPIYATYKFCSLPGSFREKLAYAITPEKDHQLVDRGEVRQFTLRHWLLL

Compound: CCC(=O)N(CC1CCN(CCc2ccc(F)cc2)CC1)c1ccccc1 [Compound 12j, N-{1-[2-(4-Fluoro-phenyl)-ethyl]-piperidin-4-ylmethyl}-N-phenyl-propionamide fumaric acid salt]
- IC50 [1]: 480 nM
- IC50 [2]: 280 nM
- IC50 [3]: 5500 nM
